The structures appear in SMILES notation. “Also recorded” adds a separate entry of the source. Where two headings read alike, the source gives them in different places.

In data set [1] the target is T1, α-syn fibrils (Homo sapiens, UniProt P37840). The experiment in a line: α-Synuclein fibril/ligand saturation binding assay. Conditions: for Kd: Kd α-syn, mean ± SD (n = 3); for selectivity for α-syn fibrils compared with amyloid-β (Aβ) and tau fibrils: abstract.
The target in another data set is Aβ (1–40) fibrils (Homo sapiens, UniProt P05067). The experiment in a line: Aβ fibril/ligand saturation binding assay.
Data set [2] has as its target tau fibrils (Tau-441, 2N4R) (Homo sapiens, UniProt P10636). The experiment in a line: Tau fibril/ligand saturation binding assay. Conditions: for α-syn versus tau binding selectivity: from Kd tau and Kd α-syn.
Data set [3] can be described thus: Absorption/emission maxima and fluorescence quantum yield of free ligand in PBS. It is filed as physicochemical. The following applies: for Absmax / Emmax: free ligand in PBS.
In data set [4] the target is T1, α-syn fibrils. Kind of data set: Fluorescent properties of ligand-α-syn fibril complex. It is filed as physicochemical.
Data set [5] concerns the target T2, Aβ fibrils (Homo sapiens, UniProt P05067). The experiment in a line: Fluorescent properties of ligand-Aβ fibril complex. The class given is physicochemical.
The target of data set [6] is T1, α-syn fibrils. Conditions: read-out: Kd α-syn; fibril saturation binding; cited from earlier work.
In data set [7] the target is T2, Aβ fibrils. The following applies: read-out: Kd Aβ; fibril saturation binding; cited from earlier work.
Data set [8] addresses Aβ plaques in human AD brain tissue (Homo sapiens, UniProt P05067). The experiment in a line: Fluorescent staining of human AD brain tissue sections. The following applies: cortical sections, co-stained with antibody 4G8.
[9] abbreviates: Table 3 and text, α-syn fibrils, saturation binding.

tau fibrils (Tau-441, 2N4R), sequence (P10636 1-441 isoform P10636-8): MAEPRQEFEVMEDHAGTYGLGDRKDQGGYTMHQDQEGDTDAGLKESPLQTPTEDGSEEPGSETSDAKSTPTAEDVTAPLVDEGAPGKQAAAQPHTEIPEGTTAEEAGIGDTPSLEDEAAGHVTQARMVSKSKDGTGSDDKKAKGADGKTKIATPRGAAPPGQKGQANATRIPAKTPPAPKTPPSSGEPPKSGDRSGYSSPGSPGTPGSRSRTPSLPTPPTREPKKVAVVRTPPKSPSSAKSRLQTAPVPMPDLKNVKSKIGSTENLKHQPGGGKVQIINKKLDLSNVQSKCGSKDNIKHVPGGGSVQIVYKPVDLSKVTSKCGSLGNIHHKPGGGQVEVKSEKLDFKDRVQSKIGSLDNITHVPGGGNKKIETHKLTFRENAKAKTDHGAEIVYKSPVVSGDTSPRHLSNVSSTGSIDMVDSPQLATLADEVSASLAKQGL
T2 sequence (P05067 672-711): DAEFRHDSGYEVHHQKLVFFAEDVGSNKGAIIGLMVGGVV
Aβ plaques in human AD brain tissue, sequence (P05067 672-711 limits assumed): as the sequence (P05067 672-711) above
Aβ (1–40) fibrils, sequence (P05067 672-711): as above

The Kd is the equilibrium constant for the complex coming apart. The molecule `O=C(O)c1ccc(-c2ccc(/C=C/C=C3\Cc4ccc(O)cc4C3=O)cc2)cc1` [compound 32, 4'-((E)-3-((E)-6-Hydroxy-1-oxo-1,3-dihydro-2H-inden-2-ylidene)prop-1-en-1-yl)-[1,1'-biphenyl]-4-carboxylic acid] came in with a Kd at α-syn fibrils [1] (setting [9]) of 18.8 ± 4 nM. For the same molecule, at α-syn fibrils [1], the “selectivity for α-syn fibrils compared with amyloid-β (Aβ) and tau fibrils” value is listed as “greater than 10 x”. This molecule had a Kd at Aβ (1–40) fibrils of 491 ± 58.9 nM. Besides, in data set [2], the affinity, expressed as Kd, was 579 ± 30.6 nM and the “α-syn versus tau binding selectivity” value came to 30.8 x. In [3], the “Fluorescence quantum yield Free ligand” value was found to be 0.0104, the Absmax stood at 392 and the Emmax was 563. For the same molecule, at α-syn fibrils [4], the “Absmax Ligand + α-syn” value was 448, the “Emmax Ligand + α-syn” value was 586 and the “Fluorescence quantum yield Ligand + α-syn” value is 0.1125. For the same molecule, at Aβ fibrils [5], the “Absmax Ligand + Aβ” value was 443, the “Emmax Ligand + Aβ” value is 583 and the “Fluorescence quantum yield Ligand + Aβ” value is recorded as 0.2498.
For the molecule `CN(C)c1ccc(-c2cc(-c3ccnc(Br)c3)[nH]n2)cc1` [[^11C]MODAG-001], the dissociation constant Kd at α-syn fibrils [6] is 0.6 ± 0.1 nM; on Aβ fibrils [7], 20 ± 10 nM.
Turning to `COc1cc(/C=C/C=C2\Cc3ccccc3C2=O)ccc1O` [compound 8, (E)-2-((E)-3-(4-Hydroxy-3-methoxyphenyl)allylidene)-2,3-dihydro-1H-inden-1-one], binding on α-syn fibrils [1] (Table 1, synthetic α-syn fibrils 2.5 μM, 1 hour) was characterised by a dissociation constant (Kd) of 9 ± 0.5 nM. Besides, the dissociation constant Kd on α-syn fibrils [1] (setting [9]) worked out at 9 ± 0.5 nM. Besides, the “selectivity for α-syn fibrils compared with amyloid-β (Aβ) and tau fibrils” value on α-syn fibrils [1] was “greater than 10 x”. The “Selectivity α-syn v/s Aβ” value on α-syn fibrils [1] (from Kd Aβ and Kd α-syn) is 15.6 x. On Aβ (1–40) fibrils, this molecule registered a Kd of 140 ± 4.2 nM. For the same molecule, in data set [2], the affinity, expressed as Kd, was 388 ± 38.2 nM and the “α-syn versus tau binding selectivity” value was 43 x. Also, in [3], the “Fluorescence quantum yield Free ligand” value amounted to 0.0079, the Absmax is recorded as 405 and the Emmax is recorded as 542. For the same molecule, on α-syn fibrils [4], the “Absmax Ligand + α-syn” value was 446, the “Emmax Ligand + α-syn” value came out at 585 and the “Fluorescence quantum yield Ligand + α-syn” value turned out to be 0.078. Further, at Aβ fibrils [5], the “Absmax Ligand + Aβ” value stood at 441, the “Emmax Ligand + Aβ” value was 579 and the “Fluorescence quantum yield Ligand + Aβ” value is on record as 0.1363. The “labeling of Aβ pathology in AD brain sections” value in data set [8] was “mostly dense core Aβ plaques in the ligand channel (column II) but not the finer aggregates composed of diffuse plaques; also recorded: highlights mostly dense core Aβ plaques”.

These data come from paper PMC8770581 (ChemMedChem, 2021).
